Molecular target: T1, caspase-1 (Homo sapiens, UniProt P29466)
T1 sequence (P29466 120-297 limits assumed): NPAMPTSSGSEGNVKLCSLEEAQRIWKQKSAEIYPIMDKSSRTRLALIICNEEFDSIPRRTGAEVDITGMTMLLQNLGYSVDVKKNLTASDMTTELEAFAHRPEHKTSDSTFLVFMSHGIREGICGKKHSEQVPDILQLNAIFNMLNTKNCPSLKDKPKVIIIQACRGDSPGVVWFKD
T1 sequence (P29466 317-404 limits assumed): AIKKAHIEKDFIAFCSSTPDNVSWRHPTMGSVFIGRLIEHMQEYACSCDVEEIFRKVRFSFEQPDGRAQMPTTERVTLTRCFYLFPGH
Test: Reaction time of probes for caspase-1
Format: biochemical
Conditions: probe 5 μM, Cas-1 2 U/mL, assay buffer, 37 °C
Method: The spectral and chemical properties of all probes were then evaluated. Upon interaction with Cas-1, the specific peptide of the probes is cleaved, leading to the disruption of the FRET process in the system and the recovery of donor fluorescence (Fig. 2a). Prior to fluorescence detection, the UV-vis absorption spectra of the probes were acquired. […] Subsequently, the sensitivity of the probes towards Cas-1 was measured in HEPES buffer (50 mM HEPES, 50 mM NaCl, 0.1% chaps, 5% glycerol, 10 mM DTT, 10 mM EDTA). […] The response differences among the probes were more intuitively observed by analyzing the standard curves of fluorescence intensity at 585 nm against the concentration of Cas-1 (Fig. 2b). […] The reaction kinetics of the probes were also measured by monitoring the fluorescence intensity of FPy1, YPy1 and WPy1 (0.5–4 μM) following incubation with Cas-1 (2 U mL^−1) (Fig. S3a–f). […] The reaction time of the probes was also investigated by monitoring the fluorescence spectra of the probes (5 μM) incubated with Cas-1 (2 U mL^−1) at various time intervals (Fig. S4a–c). […] Finally, the selectivity of the probes was evaluated. […]
To investigate the sensitivity of the probes for caspase-1, varying concentration of caspase-1 (0, 0.2, 0.4, 0.6, 0.8, 1.0, 1.25, 1.5, 1.75, 2, 2.5, 3 U/mL) were incubated with FPy1 (5 μM), YPy1 (5 μM) and WPy1 (5 μM) respectively in caspase-1 assay buffer (50 mM HEPES, 50 mM NaCl, 0.1 % chaps, 5 % glycerol, 10 mM DTT, 10 mM EDTA) at 37 °C for 2 hours. Fluorescence spectra were recorded using Hitachi F-2700 spectrophotometer with an excitation at 510 nm (Photomultiplier voltage 700 V; Slit widths ex: 10 nm and em =5.0 nm). The fluorescence intensity of FPy1, YPy1 and WPy1 at 585 nm were plotted against the concentration of caspase-1, and a linear regression fitted from the corresponding concentration of caspase-1, and linear regression was applied to determine the slope k. The limit of detection (LoD) was calculated from 3σ/k, in which σ represents the standard deviation of 15 blank measurements. […]

Row | Substance | time to maximum fluorescence intensity at 585 nm (reaction time)
1 | –FLTDG– [FPy1, RhoB donor, hNR quencher] | ≤ 40 min
2 | –YVADG– [YPy1, caspase-1-responsive FRET probe with recognition peptide –YVADG–; RhoB donor, hNR quencher] | 60 min
